Values after ≈ are worked out from the molar mass of the structure shown.
Experiments:
[1] = test system: Mycobacterium tuberculosis; test: Minimum inhibitory concentration against sensitive Mycobacterium tuberculosis clinical isolates; N=9; assay type: functional
[2] = test system: Mycobacterium tuberculosis; test: Minimum inhibitory concentration against Mycobacterium tuberculosis H37Rv ATCC 27294; assay type: functional
[3] = test system: Mycobacterium tuberculosis; test: Minimum inhibitory concentration against sensitive Mycobacterium tuberculosis clinical isolates; N=9; range=8-16; assay type: functional
[4] = test system: Mycobacterium tuberculosis; test: Minimum inhibitory concentration against sensitive Mycobacterium tuberculosis clinical isolates; N=9; range=2-4; assay type: functional
[5] = test system: Mycobacterium tuberculosis; test: Minimum inhibitory concentration against sensitive Mycobacterium tuberculosis clinical isolates; N=9; range=4-8; assay type: functional
[6] = test system: Mycobacterium tuberculosis; test: Minimum inhibitory concentration against sensitive Mycobacterium tuberculosis clinical isolates; N=9; range=1-4; assay type: functional
[7] = test system: Mycobacterium tuberculosis; test: Minimum inhibitory concentration against sensitive Mycobacterium tuberculosis clinical isolates; N=9; Range = 0.12-0.25; assay type: functional
[8] = test system: Mycobacterium tuberculosis; test: microbe, parasite or virus in culture
Description: Minimum inhibitory concentration against sensitive Mycobacterium tuberculosis clinical isolates; N=9; Range=0.03-0.5

Compound | MIC [1] | MIC [2] | other results
O=C(CN(/N=C/c1ccccc1Cl)C(=O)c1ccncc1)N1CCN(c2ccc(F)cc2)CC1 | > 16 µg/mL | > 16 µg/mL | 
O=C(CN(/N=C/c1cccc(Cl)c1)C(=O)c1ccncc1)N1CCN(c2ccc([N+](=O)[O-])cc2)CC1 | > 16 µg/mL | > 16 µg/mL | 
O=C(CN(/N=C/c1ccc(Cl)cc1Cl)C(=O)c1ccncc1)N1CCN(c2ccc(Cl)cc2)CC1 | 8 µg/mL (≈ 15.1 µM) | 8 µg/mL (≈ 15.1 µM) | 
O=C(CN(/N=C/c1ccc(Cl)cc1Cl)C(=O)c1ccncc1)N1CCN(c2ccc(F)cc2)CC1 |  | > 16 µg/mL | MIC [3]: 16 µg/mL (≈ 31.1 µM)
O=C(CN(/N=C/c1cccc(Cl)c1)C(=O)c1ccncc1)N1CCN(c2ccc(Cl)cc2)CC1 | > 16 µg/mL | > 16 µg/mL | 
COc1ccccc1N1CCN(C(=O)CN(/N=C/c2ccc(Cl)cc2)C(=O)c2ccncc2)CC1 | > 16 µg/mL | > 16 µg/mL | 
COc1ccccc1N1CCN(C(=O)CN(/N=C/c2ccccc2Cl)C(=O)c2ccncc2)CC1 | > 16 µg/mL | > 16 µg/mL | 
O=C(CN(/N=C/c1ccc(Cl)cc1)C(=O)c1ccncc1)N1CCN(c2ccc(Cl)cc2)CC1 | > 16 µg/mL | > 16 µg/mL | 
O=C(CN(/N=C/c1ccc(Cl)cc1Cl)C(=O)c1ccncc1)N1CCN(c2cccc(C(F)(F)F)c2)CC1 | > 16 µg/mL | > 16 µg/mL | 
O=C(CN(/N=C/c1ccccc1Cl)C(=O)c1ccncc1)N1CCN(c2ccccc2)CC1 |  | > 16 µg/mL | MIC [3]: 16 µg/mL (≈ 34.6 µM)
O=C(CN(/N=C/c1ccccc1Cl)C(=O)c1ccncc1)N1CCN(c2ccc([N+](=O)[O-])cc2)CC1 | > 16 µg/mL | > 16 µg/mL | 
Cc1cccc(N2CCN(C(=O)CN(/N=C/c3ccc(Cl)cc3Cl)C(=O)c3ccncc3)CC2)c1 | > 16 µg/mL | > 16 µg/mL | 
O=C(CN(/N=C/c1ccccc1Cl)C(=O)c1ccncc1)N1CCN(c2cccc(Cl)c2)CC1 | > 16 µg/mL | > 16 µg/mL | 
Cc1cccc(N2CCN(C(=O)CN(/N=C/c3ccccc3Cl)C(=O)c3ccncc3)CC2)c1 | > 16 µg/mL | > 16 µg/mL | 
O=C(CN(/N=C/c1ccc(Cl)cc1)C(=O)c1ccncc1)N1CCN(c2ccc(F)cc2)CC1 | > 16 µg/mL | > 16 µg/mL | 
COc1ccccc1N1CCN(C(=O)CN(/N=C/c2cccc(Cl)c2)C(=O)c2ccncc2)CC1 | > 16 µg/mL | > 16 µg/mL | 
O=C(CN(/N=C/c1ccccc1Cl)C(=O)c1ccncc1)N1CCN(c2cccc(C(F)(F)F)c2)CC1 | > 16 µg/mL | > 16 µg/mL | 

Compound | MIC [1] | MIC [2] | other results
O=C(CN(/N=C/c1ccc(Cl)cc1Cl)C(=O)c1ccncc1)N1CCN(c2cccc(Cl)c2)CC1 | > 16 µg/mL | > 16 µg/mL | 
O=C(CN(/N=C/c1cccc(Cl)c1)C(=O)c1ccncc1)N1CCN(c2ccc(F)cc2)CC1 | > 16 µg/mL | > 16 µg/mL | 
O=C(CN(/N=C/c1cccc(Cl)c1)C(=O)c1ccncc1)N1CCN(c2cccc(Cl)c2)CC1 | > 16 µg/mL | > 16 µg/mL | 
O=C(CN(/N=C/c1ccc(Cl)cc1)C(=O)c1ccncc1)N1CCN(c2ccc([N+](=O)[O-])cc2)CC1 | > 16 µg/mL | > 16 µg/mL | 
COc1ccccc1N1CCN(C(=O)CN(/N=C/c2ccc(Cl)cc2Cl)C(=O)c2ccncc2)CC1 | > 16 µg/mL | > 16 µg/mL | 
O=C(CN(/N=C/c1ccccc1Cl)C(=O)c1ccncc1)N1CCN(c2ccc(Cl)cc2)CC1 | > 16 µg/mL | > 16 µg/mL | 
O=C(CN(/N=C/c1ccc(Cl)cc1Cl)C(=O)c1ccncc1)N1CCN(Cc2ccc3c(c2)OCO3)CC1 | 0.5 µg/mL (≈ 0.902 µM) |  | Range of MIC [2]: 1 µg/mL
O=C(CN(/N=C/c1ccc(Cl)cc1Cl)C(=O)c1ccncc1)N1CCN(c2ccc([N+](=O)[O-])cc2)CC1 | > 16 µg/mL | > 16 µg/mL | 
O=C(CN(/N=C/c1cccc(Cl)c1)C(=O)c1ccncc1)N1CCN(Cc2ccc3c(c2)OCO3)CC1 |  | 4 µg/mL (≈ 7.69 µM) | MIC [4]: 4 µg/mL (≈ 7.69 µM)
O=C(CN(/N=C/c1ccc(Cl)cc1Cl)C(=O)c1ccncc1)N1CCN(c2ccccc2)CC1 | > 16 µg/mL | > 16 µg/mL | 
O=C(CN(/N=C/c1ccccc1Cl)C(=O)c1ccncc1)N1CCN(Cc2ccc3c(c2)OCO3)CC1 |  | 4 µg/mL (≈ 7.69 µM) | MIC [5]: 8 µg/mL (≈ 15.4 µM)
Cc1cccc(N2CCN(C(=O)CN(/N=C/c3cccc(Cl)c3)C(=O)c3ccncc3)CC2)c1 | > 16 µg/mL | > 16 µg/mL | 
O=C(CN(/N=C/c1ccc(Cl)cc1)C(=O)c1ccncc1)N1CCN(Cc2ccc3c(c2)OCO3)CC1 |  | 2 µg/mL (≈ 3.85 µM) | MIC [6]: 4 µg/mL (≈ 7.69 µM)
O=C(CN(/N=C/c1ccccc1Cl)C(=O)c1ccncc1)N1CCN(c2cccc(Cl)c2Cl)CC1 | > 16 µg/mL | > 16 µg/mL | 
O=C(CN(/N=C/c1cccc(Cl)c1)C(=O)c1ccncc1)N1CCN(c2ccccc2)CC1 | > 16 µg/mL | > 16 µg/mL | 
NNC(=O)c1ccncc1 [ISONIAZID] |  | 0.25 µg/mL (≈ 1.82 µM) | MIC [7]: 0.25 µg/mL (≈ 1.82 µM)
CO[C@H]1/C=C/O[C@@]2(C)Oc3c(C)c(O)c4c(O)c(c(/C=N/N5CCN(C)CC5)c(O)c4c3C2=O)NC(=O)/C(C)=C\C=C\[C@H](C)[C@H](O)[C@@H](C)[C@@H](O)[C@@H](C)[C@H](OC(C)=O)[C@@H]1C [RIFAMPIN] |  | 0.125 µg/mL (≈ 0.152 µM) | MIC [8]: 0.5 µg/mL (≈ 0.608 µM)

Source: ChEMBL document CHEMBL1142033, “Synthesis of isonicotinic acid N'-arylidene-N-[2-oxo-2-(4-aryl-piperazin-1-yl)-ethyl]-hydrazides as antituberculosis agents” (2005)
